# Assay results taken from paper PMC9090415, “Discovery of small molecule inhibitors of Plasmodium falciparum apicoplast DNA polymerase” (Journal of Enzyme Inhibition and Medicinal Chemistry, 2022).
# Molecular target: P. falciparum apicoplast DNA polymerase (Pf-apPOL) (Plasmodium falciparum, UniProt Q8ILY1)
# Test: Fluorescence-based high-throughput DNA polymerase assay (molecular beacon), primary screen and dose-response
# Format: biochemical
# How it was run: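 Single-point screening used 10 µM compound with 20 nM polymerase, 20 nM hairpin substrate and 6 µM dNTPs for 90 min at 25 °C. Confirmatory titrations (2.5–80 µM) followed fluorescence at three times, and IC50 was derived from a fit including a cooperativity term n.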
# Chain of P. falciparum apicoplast DNA polymerase (Pf-apPOL) (Q8ILY1 entry or part of it): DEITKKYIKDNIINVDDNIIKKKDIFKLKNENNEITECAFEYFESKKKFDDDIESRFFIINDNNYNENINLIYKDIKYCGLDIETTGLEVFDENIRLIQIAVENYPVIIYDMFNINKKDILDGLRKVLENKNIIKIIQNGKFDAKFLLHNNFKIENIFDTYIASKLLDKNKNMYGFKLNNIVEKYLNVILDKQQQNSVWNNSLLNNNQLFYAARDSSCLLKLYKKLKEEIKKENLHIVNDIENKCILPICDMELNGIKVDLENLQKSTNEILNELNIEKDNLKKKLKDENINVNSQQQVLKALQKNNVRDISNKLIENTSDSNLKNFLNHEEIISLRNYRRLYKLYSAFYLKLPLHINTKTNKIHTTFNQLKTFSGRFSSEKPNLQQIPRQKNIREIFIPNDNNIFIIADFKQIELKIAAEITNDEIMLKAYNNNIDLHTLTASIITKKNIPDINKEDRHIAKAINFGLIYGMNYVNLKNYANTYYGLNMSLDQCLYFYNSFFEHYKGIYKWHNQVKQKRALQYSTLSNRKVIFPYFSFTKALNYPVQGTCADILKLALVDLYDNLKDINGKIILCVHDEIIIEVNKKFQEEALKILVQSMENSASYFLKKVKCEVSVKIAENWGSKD
smiles,measurement,setting,value
"Cc1ccc(C)c(CSc2nc(C3CCCCC3)c(C#N)c(=O)[nH]2)c1 [Molecule 6, N#Cc1c(=O)[nH]c(nc1C1CCCCC1)SCc1cc(C)ccc1C]",DNA Pol,"'DNA Pol' of the 186 hits list (primary screen result); unit not given; 90 min, 10 µM",98
same,% inhibition Apo pol 10',DRC-1; 10'; concentration 2.5,19.6577%
same,% inhibition Apo pol 10',DRC-1; 10'; concentration 5,38.2184%
same,% inhibition Apo pol 10',DRC-1; 10'; concentration 10,71.2419%
same,% inhibition Apo pol 10',DRC-1; 10'; concentration 20,88.8023%
same,% inhibition Apo pol 10',DRC-1; 10'; concentration 40,92.9931%
same,% inhibition Apo pol 10',DRC-1; 10'; concentration 80,97.5171%
same,% inhibition Apol 90',DRC-1; 90'; concentration 2.5,7.563%
same,% inhibition Apol 90',DRC-1; 90'; concentration 5,29.5473%
same,% inhibition Apol 90',DRC-1; 90'; concentration 10,66.2339%
same,% inhibition Apol 90',DRC-1; 90'; concentration 20,83.4926%
same,% inhibition Apol 90',DRC-1; 90'; concentration 40,89.6774%
same,% inhibition Apol 90',DRC-1; 90'; concentration 80,97.7776%
same,% inhibition apPOL 180',DRC-1; 180'; concentration 2.5,-0.2009%
same,% inhibition apPOL 180',DRC-1; 180'; concentration 5,17.3135%
same,% inhibition apPOL 180',DRC-1; 180'; concentration 10,54.7895%
same,% inhibition apPOL 180',DRC-1; 180'; concentration 20,77.2836%
same,% inhibition apPOL 180',DRC-1; 180'; concentration 40,85.5131%
same,% inhibition apPOL 180',DRC-1; 180'; concentration 80,97.5591%
same,% inhibition Apol 40',"DRC-2, 40', concentration 2.5 (unit not given)",13%
same,% inhibition ApPOL 90',"DRC-2, 90', concentration 40 (unit not given)",80%
same,% inhibition apPOL 180',"DRC-2, 180', concentration 5 (unit not given)",10%
same,% inhibition apPOL 180',"DRC-2, 180', concentration 40 (unit not given)",80%
same,% inhibition apPOL 180',"DRC-2, 180', concentration 80 (unit not given)",80%
same,% inhibition Apo pol 5',DRC-2; 5'; concentration 2.5,9%
same,% inhibition Apo pol 5',DRC-2; 5'; concentration 5,13%
same,% inhibition Apo pol 5',DRC-2; 5'; concentration 5 (unit not given),13%
same,% inhibition Apo pol 5',DRC-2; 5'; concentration 20,59%
same,% inhibition Apo pol 5',DRC-2; 5'; concentration 40,63%
same,% inhibition Apo pol 5',DRC-2; 5'; concentration 80,61%
same,% inhibition Apol 40',DRC-2; 40'; concentration 2.5,13%
same,% inhibition Apol 40',DRC-2; 40'; concentration 5,18%
same,% inhibition Apol 40',DRC-2; 40'; concentration 10,51%
same,% inhibition Apol 40',DRC-2; 40'; concentration 20,69%
same,% inhibition Apol 40',DRC-2; 40'; concentration 40,77%
same,% inhibition Apol 40',DRC-2; 40'; concentration 80,75%
same,% inhibition ApPOL 90',DRC-2; 90'; concentration 2.5,10%
same,% inhibition ApPOL 90',DRC-2; 90'; concentration 2.5 (unit not given),10%
same,% inhibition ApPOL 90',DRC-2; 90'; concentration 5,16%
same,% inhibition ApPOL 90',DRC-2; 90'; concentration 10,50%
same,% inhibition ApPOL 90',DRC-2; 90'; concentration 20,71%
same,% inhibition ApPOL 90',DRC-2; 90'; concentration 40,80%
same,% inhibition ApPOL 90',DRC-2; 90'; concentration 80,78%
same,% inhibition apPOL 180',DRC-2; 180'; concentration 2.5,5.53%
same,% inhibition apPOL 180',DRC-2; 180'; concentration 5,10%
same,% inhibition apPOL 180',DRC-2; 180'; concentration 20,67%
same,% inhibition apPOL 180',DRC-2; 180'; concentration 40,80%
same,% inhibition apPOL 180',DRC-2; 180'; concentration 80,80%
same,DNA Pol,"primary screen value of the library well; unit not given; 90 min, 10 µM",98
O=C(Nc1ncc([N+](=O)[O-])s1)c1ccc2c(c1)C(=O)N(N1C(=O)c3ccccc3C1=O)C2=O [KU0026378],DNA Pol,"'DNA Pol'; screening value, unit not given; 90 min, 10 µM",40
same,% inhibition Apo pol 10',DRC-1; 10'; concentration 2.5,7.75%
same,% inhibition Apo pol 10',DRC-1; 10'; concentration 5,18.061%
same,% inhibition Apo pol 10',DRC-1; 10'; concentration 10,26.4428%
same,% inhibition Apo pol 10',DRC-1; 10'; concentration 20,47.1491%
same,% inhibition Apo pol 10',DRC-1; 10'; concentration 40,69.5136%
same,% inhibition Apo pol 10',DRC-1; 10'; concentration 80,81.7904%
same,% inhibition Apol 90',DRC-1; 90'; concentration 2.5,0.8654%
same,% inhibition Apol 90',DRC-1; 90'; concentration 5,10.2523%
same,% inhibition Apol 90',DRC-1; 90'; concentration 10,17.1111%
same,% inhibition Apol 90',DRC-1; 90'; concentration 20,31.377%
same,% inhibition Apol 90',DRC-1; 90'; concentration 40,49.9666%
same,% inhibition Apol 90',DRC-1; 90'; concentration 80,63.8905%
same,% inhibition apPOL 180',DRC-1; 180'; concentration 2.5,-2.09%
same,% inhibition apPOL 180',DRC-1; 180'; concentration 5,6.201%
same,% inhibition apPOL 180',DRC-1; 180'; concentration 10,13.1954%
same,% inhibition apPOL 180',DRC-1; 180'; concentration 20,24.5599%
same,% inhibition apPOL 180',DRC-1; 180'; concentration 40,40.1737%
same,% inhibition apPOL 180',DRC-1; 180'; concentration 80,53.133%
same,% inhibition Apo pol 5',"DRC-2, 5', concentration 2.5",8%
same,% inhibition Apo pol 5',"DRC-2, 5', concentration 5",8.46%
same,% inhibition Apo pol 5',"DRC-2, 5', concentration 10",25%
same,% inhibition Apo pol 5',"DRC-2, 5', concentration 20",36%
same,% inhibition Apo pol 5',"DRC-2, 5', concentration 40",51%
same,% inhibition Apo pol 5',"DRC-2, 5', concentration 80",55%
same,% inhibition Apol 40',"DRC-2, 40', concentration 2.5",9%
same,% inhibition Apol 40',"DRC-2, 40', concentration 5",9%
same,% inhibition Apol 40',"DRC-2, 40', concentration 10",26%
same,% inhibition Apol 40',"DRC-2, 40', concentration 20",40%
same,% inhibition Apol 40',"DRC-2, 40', concentration 40",62%
same,% inhibition Apol 40',"DRC-2, 40', concentration 80",73%
same,% inhibition ApPOL 90',"DRC-2, 90', concentration 2.5",8%
same,% inhibition ApPOL 90',"DRC-2, 90', concentration 5",9%
same,% inhibition ApPOL 90',"DRC-2, 90', concentration 10",26%
same,% inhibition ApPOL 90',"DRC-2, 90', concentration 20",39%
same,% inhibition ApPOL 90',"DRC-2, 90', concentration 40",63%
same,% inhibition ApPOL 90',"DRC-2, 90', concentration 80",75%
same,% inhibition apPOL 180',"DRC-2, 180', concentration 2.5",6%
same,% inhibition apPOL 180',"DRC-2, 180', concentration 5",9%
same,% inhibition apPOL 180',"DRC-2, 180', concentration 10",24%
same,% inhibition apPOL 180',"DRC-2, 180', concentration 20",36%
same,% inhibition apPOL 180',"DRC-2, 180', concentration 40",59%
same,% inhibition apPOL 180',"DRC-2, 180', concentration 80",74%
same,% inhibition Apo pol 5',conc 2.5 (unit not given); 5'; DRC-2,8%
same,% inhibition Apol 40',conc 2.5 (unit not given); 40'; DRC-2,9%
same,% inhibition ApPOL 90',conc 2.5 (unit not given); 90'; DRC-2,8%
same,% inhibition Apol 40',conc 5 (unit not given); 40'; DRC-2,9%
same,% inhibition ApPOL 90',conc 5 (unit not given); 90'; DRC-2,9%
same,% inhibition apPOL 180',conc 5 (unit not given); 180'; DRC-2,9%
same,% inhibition Apol 40',conc 10 (unit not given); 40'; DRC-2,26%
same,% inhibition ApPOL 90',conc 10 (unit not given); 90'; DRC-2,26%
same,% inhibition Apo pol 5',conc 20 (unit not given); 5'; DRC-2,36%
same,% inhibition apPOL 180',conc 20 (unit not given); 180'; DRC-2,36%
same,DNA Pol,"primary screen hit value, DNA Pol (186 hits); 90 min, 10 µM",40
"Oc1ccc(N=Nc2ccccc2)c(O)c1 [Molecule 80, Oc1ccc(c(c1)O)N=Nc1ccccc1]",DNA Pol,"186 hits, value of the hit list (primary screen); unit not given; 90 min, 10 µM",72
same,% inhibition Apo pol 10',DRC-1; 10'; concentration 2.5,10.9556%
same,% inhibition Apo pol 10',DRC-1; 10'; concentration 5,10.5427%
same,% inhibition Apo pol 10',DRC-1; 10'; concentration 10,21.5612%
same,% inhibition Apo pol 10',DRC-1; 10'; concentration 20,33.6555%
same,% inhibition Apo pol 10',DRC-1; 10'; concentration 40,51.3856%
same,% inhibition Apo pol 10',DRC-1; 10'; concentration 80,71.5271%
same,% inhibition Apol 90',DRC-1; 90'; concentration 2.5,-0.1987%
same,% inhibition Apol 90',DRC-1; 90'; concentration 5,0.4517%
same,% inhibition Apol 90',DRC-1; 90'; concentration 10,6.956%
same,% inhibition Apol 90',DRC-1; 90'; concentration 20,15.0719%
same,% inhibition Apol 90',DRC-1; 90'; concentration 40,30.4244%
same,% inhibition Apol 90',DRC-1; 90'; concentration 80,54.1765%
same,% inhibition apPOL 180',DRC-1; 180'; concentration 2.5,-4.521%
same,% inhibition apPOL 180',DRC-1; 180'; concentration 5,-7.381%
same,% inhibition apPOL 180',DRC-1; 180'; concentration 10,-2.239%
same,% inhibition apPOL 180',DRC-1; 180'; concentration 20,3.639%
same,% inhibition apPOL 180',DRC-1; 180'; concentration 40,16.6852%
same,% inhibition apPOL 180',DRC-1; 180'; concentration 80,39.1474%
same,% inhibition Apo pol 5',"DRC-2, 5', concentration 2.5",1.77%
same,% inhibition Apo pol 5',"DRC-2, 5', concentration 5",5.48%
same,% inhibition Apo pol 5',"DRC-2, 5', concentration 10",24%
same,% inhibition Apo pol 5',"DRC-2, 5', concentration 20",31%
same,% inhibition Apo pol 5',"DRC-2, 5', concentration 40",44%
same,% inhibition Apo pol 5',"DRC-2, 5', concentration 80",51%
same,% inhibition Apol 40',"DRC-2, 40', concentration 2.5",1.06%
same,% inhibition Apol 40',"DRC-2, 40', concentration 5",2.17%
same,% inhibition Apol 40',"DRC-2, 40', concentration 10",23%
same,% inhibition Apol 40',"DRC-2, 40', concentration 20",29%
same,% inhibition Apol 40',"DRC-2, 40', concentration 40",43%
same,% inhibition Apol 40',"DRC-2, 40', concentration 80",54%
same,% inhibition ApPOL 90',"DRC-2, 90', concentration 2.5",-1%
same,% inhibition ApPOL 90',"DRC-2, 90', concentration 5",-0.664%
same,% inhibition ApPOL 90',"DRC-2, 90', concentration 10",21%
same,% inhibition ApPOL 90',"DRC-2, 90', concentration 20",24%
same,% inhibition ApPOL 90',"DRC-2, 90', concentration 40",38%
same,% inhibition ApPOL 90',"DRC-2, 90', concentration 80",52%
same,% inhibition apPOL 180',"DRC-2, 180', concentration 2.5",-4%
same,% inhibition apPOL 180',"DRC-2, 180', concentration 5",-4.42%
same,% inhibition apPOL 180',"DRC-2, 180', concentration 10",16%
same,% inhibition apPOL 180',"DRC-2, 180', concentration 20",15%
same,% inhibition apPOL 180',"DRC-2, 180', concentration 40",25%
same,% inhibition apPOL 180',"DRC-2, 180', concentration 80",41%
same,% inhibition Apo pol 5',DRC-2; 5'; concentration 10,24%
same,% inhibition ApPOL 90',DRC-2; 90'; concentration 20,24%
same,DNA Pol,"primary screen value, 'DNA Pol' only; 90 min, 10 µM",72
